Where two headings read alike, the source gives them in different places.
Tests used:
S1P1 = S1P1 (Homo sapiens, UniProt P21453); assay: [35S]-GTPγS binding assay, S1P1; assay type: biochemical; settings: for Emax: control S1P, read-out: S1P1 % Efficacy
Method: (§1) Cell Membrane Preparations
(§2) CHO cells expressing recombinant S1P receptors were cultured 500 cm^2 culture trays and once confluent, rinsed and detached with cell-lifting buffer (10 mM HEPES, 154 mM NaCl, 6.85 mM EDTA, pH 7.4). Cells were then pelleted by centrifugation, resuspended, and homogenized in membrane preparation buffer (10 mM HEPES and 10 mM EDTA, pH 7.4) using a Polytron PT 1200E homogenizer (Kinematica, Luzern, Switzerland). Cellular proteins were pelleted by centrifugation at 48,000×g at 4° C. for 30 minutes. The resulting supernatant was discarded, and the pellet was re-suspended again in membrane preparation buffer, homogenized for a second time and then centrifuged again as described above. The final cellular protein pellet was suspended in ice cold resuspension buffer (10 mM HEPES and 0.1 mM EDTA, pH 7.4), divided into aliquots, and stored at −80° C. until use.
(§3) Binding assays for [^35S]-GTPγS were performed in 96-well non-binding surface plates with a final volume of 200 μL. The test compounds were serial diluted in DMSO and added to assay plates using a Tecan D300E digital printer with a total volume of 0.4 μL. The control sphingosine-1-phosphate (S1P) was prepared separately by preparing a 400 μM stock solution from a 100 nmol pellet of S1P in 10 mM Na2CO3 with 2% β-cyclodextrin. The serial dilution of S1P was done using complete assay buffer (20 mM HEPES, 10 mM MgCl2, 100 mM NaCl, 1 mM EDTA, 0.1% fatty acid free bovine serum albumin [BSA], and 30 μg/mL saponin, pH7.4) and transferred to wells already containing 0.4 μL DMSO. All the wells were then loaded to a total volume of 40 μL of complete assay buffer, except the non-specific binding (NSB) wells. For NSB wells, 40 µL/well of 50 μM GTPγS (Sigma Aldrich, cat #G8634, St. Louis, MO) was added to wells containing 0.4 μL of DMSO. The assay was started by the addition of 120 μL/well of CHO—S1P receptor membrane solution containing 40 μg/mL of membrane protein, 16.67 μM guanosine diphosphate (GDP; Sigma Aldrich, cat #G7127, St. Louis, MO), and 2.5 mg/mL of WGA PVT SPA beads in complete buffer. Assay plates were then sealed and incubated at room temperature with gentle agitation for 30 minutes. Next, 40 μL/well of 1 nM of [^35S]-GTPγS (PerkinElmer, cat #NEG030X250UC, Waltham, MA) in basic assay buffer (20 mM HEPES, 10 mM MgCl2, 100 mM NaCl, and 1 mM EDTA, pH7.4) was added to the assay plates to yield a final concentration of […] and the plates were further incubated for 40 minutes at room temperature with gentle agitation. The assay was terminated by centrifugation of the plates at 1000 rpm for 3 minutes using an Eppendorf 5810R centrifuge (Eppendorf, Hamburg, Germany) and G protein bound radioactivity was quantitated using a MicroBeta2 microplate scintillation counter (PerkinElmer, Waltham, MA).

S1P5 = S1P5 (Homo sapiens, UniProt Q9H228); assay: [35S]-GTPγS binding assay, S1P5; assay type: biochemical; settings: membranes of CHO cells expressing recombinant S1P receptors; for Emax: control S1P, read-out: S1P5 % Efficacy
Method: as §1, §2, §3

[1] = membranes of CHO cells expressing recombinant S1P receptors, [35S]-GTPγS binding
[2] = membranes of CHO cells expressing recombinant S1P receptors, [35S]-GTPγS binding, read-out: S1P1 EC50

Chain of S1P5 (Q9H228 whole entry, species assumed): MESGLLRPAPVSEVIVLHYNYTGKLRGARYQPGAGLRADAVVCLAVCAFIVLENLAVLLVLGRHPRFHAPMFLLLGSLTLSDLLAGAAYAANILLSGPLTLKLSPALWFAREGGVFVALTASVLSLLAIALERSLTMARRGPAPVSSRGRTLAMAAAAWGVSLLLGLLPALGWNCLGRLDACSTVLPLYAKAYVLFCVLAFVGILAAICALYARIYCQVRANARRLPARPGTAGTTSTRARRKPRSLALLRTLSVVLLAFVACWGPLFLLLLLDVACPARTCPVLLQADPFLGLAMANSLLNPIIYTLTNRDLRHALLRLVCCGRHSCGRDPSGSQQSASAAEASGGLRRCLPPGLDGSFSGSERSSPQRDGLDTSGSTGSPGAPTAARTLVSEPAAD
Chain of S1P1 (P21453 whole entry, species assumed): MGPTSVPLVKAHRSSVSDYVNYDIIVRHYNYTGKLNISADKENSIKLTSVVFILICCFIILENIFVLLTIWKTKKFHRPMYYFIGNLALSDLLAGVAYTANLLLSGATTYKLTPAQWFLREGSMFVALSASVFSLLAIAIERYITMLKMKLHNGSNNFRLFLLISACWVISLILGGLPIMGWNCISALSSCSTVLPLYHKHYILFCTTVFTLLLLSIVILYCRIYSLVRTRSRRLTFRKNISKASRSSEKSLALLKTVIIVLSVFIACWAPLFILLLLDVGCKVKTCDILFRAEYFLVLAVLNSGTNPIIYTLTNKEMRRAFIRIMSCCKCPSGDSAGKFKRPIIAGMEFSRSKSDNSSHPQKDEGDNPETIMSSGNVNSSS

Row | EC50 (S1P1; [2]) [nM] | Emax (S1P5) [%] | SMILES | Emax (S1P1; [1]) [%] | EC50 (S1P5) [nM] | EC50 (S1P1) [nM]
1 | 4 | 58 | CC(C)Oc1ccc(-c2nc(-c3cccc4c3CC/C4=N/O)no2)cc1C#N [Compound 10, (Z)-5-(3-(1-(hydroxyimino)-2,3-dihydro-1H-inden-4-yl)-1,2,4-oxadiazol-5-yl)-2-isopropoxybenzonitrile] | 97 | 6 | 
2 | 8 | 64 | CC(C)Oc1ccc(-c2nc(-c3cccc4c3CC/C4=N/OCCN(C)C)no2)cc1C#N [Compound 8] | 90 | 15 | 
3 | 6 | 85 | CC(C)Oc1ccc(-c2nc(-c3cccc4c3CC/C4=N/OCCCC(=O)O)no2)cc1C#N [Compound 11, (Z)-4-(((4-(5-(3-cyano-4-isopropoxyphenyl)-1,2,4-oxadiazol-3-yl)-2,3-dihydro-1H-inden-1-ylidene)amino)oxy)butanoic acid] | 85 | 80 | 

Further lines, the compound ahead of its results:

Row | SMILES | EC50 (S1P1; [2]) [nM] | Emax (S1P5) [%] | Emax (S1P1; [1]) [%] | EC50 (S1P5) [nM] | EC50 (S1P1) [nM]
4 | CC(C)Oc1ccc(-c2nc(-c3cccc4c3CC/C4=N/OC(C)(C)C)no2)cc1C#N [Compound 5, (Z)-5-(3-(1-(tert-butoxyimino)-2,3-dihydro-1H-inden-4-yl)-1,2,4-oxadiazol-5-yl)-2-isopropoxybenzonitrile] | 20 | 79 | 98 | 78 | 
5 | CC(C)Oc1ccc(-c2nc(-c3cccc4c3CC/C4=N/OCC(=O)O)no2)cc1C#N [Compound 6, (Z)-2-(((4-(5-(3-cyano-4-isopropoxyphenyl)-1,2,4-oxadiazol-3-yl)-2,3-dihydro-1H-inden-1-ylidene)amino)oxy)acetic acid] |  |  | 90 | > 2000 | 19
6 | CC(C)Oc1ccc(-c2nc(-c3cccc4c3CCC4=NOCCC(=O)O)no2)cc1C#N (stereo in doubt) [Compound 7, (E)-3-(((4-(5-(3-cyano-4-isopropoxyphenyl)-1,2,4-oxadiazol-3-yl)-2,3-dihydro-1H-inden-1-ylidene)amino)oxy)propanoic acid] | 336 | 29 | 89 | 30 | 

Reference: patent US12364686B2, “Sphingosine 1 phosphate receptor modulators” (RECEPTOS LLC, priority 2020, dated 2025)
